Data reported in the OPERA property sets (Mansouri et al. 2018).

Conditions: for log10 BCF / log10 biotransformation half-life (days): fish

| SMILES | melting point [°C] | boiling point [°C] | further results |
| --- | --- | --- | --- |
| Oc1ccc2c(c1)[C@@]13CCCC[C@H]1[C@@H](C2)N(CCc1ccccc1)CC3 | 244 |  |  |
| CCCSP(=O)(OCC)Oc1ccc(Br)cc1Cl (stereo not drawn) |  |  | log10 Koc (L/kg): 3.03; log10 vapour pressure (mmHg): -6.05 |
| FC(F)(F)C(F)(F)C(F)(F)C(F)(F)I | -68 | 67 |  |
| N#Cc1ncnc2nc[nH]c12 | 188 |  |  |
| C=C(C)CNc1ccc(C(C)C(=O)O)cc1 (stereo not drawn) | 107 |  |  |
| Clc1ccc2c(c1)C(N1CCNCC1)=Nc1ccccc1O2 | 176 |  |  |
| Nc1ccc(N)c2c1C(=O)c1c(N)ccc(N)c1C2=O | 285 |  |  |
| CC(C)OC(=O)CCl |  | 150 | log10 vapour pressure (mmHg): 0.613 |
| CS(=O)(=O)c1ccc(C(=O)O)cc1 | 270 |  |  |
| Oc1ccc(Cl)cc1Cl | 45 | 210 | log10 Koc (L/kg): 2.81; log10 vapour pressure (mmHg): -1.05; ready biodegradability: not readily biodegradable; log10 BCF: 1.53; log10 biotransformation half-life (days): -0.94 |
| FCCCF |  | 41.6 |  |
| COc1cccc(OC)c1OC | 48.5 | 235 |  |
| C#CCCC(=O)O | 57.7 |  |  |
| CCCOC(=O)C1CCCCC1 |  | 216 |  |
| O=C(c1ccccc1)C1CCCCC1 | 56 |  |  |
| OCc1cccc(O)c1 | 73 |  |  |
| CCS | -148 | 35.1 | log10 Henry constant (atm·m³/mol): -2.34; log10 vapour pressure (mmHg): 2.72 |
| C#C[C@]1(O)CC[C@H]2[C@@H]3CCc4cc(O)ccc4[C@H]3CC[C@@]21C | 183 |  |  |
| CC(=O)Nc1cccc(F)c1 | 83 |  | log10 Koc (L/kg): 1.57 |
| C/C=C/CCCO |  | 159 |  |
| CC(=O)CC1CCCCN1 (stereo not drawn) |  | 195 |  |

| SMILES | melting point [°C] | boiling point [°C] | further results |
| --- | --- | --- | --- |
| N#CCc1ccccc1Cl | 24 | 251 |  |
| CCSc1ccc2c(c1)N(CCCN1CCN(C)CC1)c1ccccc1S2 | 63 |  |  |
| CC(O)COc1ccccc1 (stereo not drawn) |  | 243 |  |
| CCCC(=NOCC)C1=C(O)CC(CC(C)SCC)CC1=O (stereo not drawn) |  |  | log10 Koc (L/kg): 2; log10 vapour pressure (mmHg): -6.8 |
| CC(Cl)C(Cl)CCl (stereo not drawn) |  | 168 |  |
| CCCCCCCC(=O)Oc1c(Br)cc(C#N)cc1Br | 45.5 |  | log10 Koc (L/kg): 4; log10 vapour pressure (mmHg): -5.32; ready biodegradability: readily biodegradable |
| O=C1CC=CCC1 |  | 170 |  |
| C=C1C(=O)O[C@@H]2C=C(CO)CCC=C(C)C[C@H](OC(=O)C(=C)[C@@H](O)CO)[C@@H]12 | 143 |  |  |
| CCN(CC)CC(=O)OCC(=O)[C@@]1(O)CC[C@H]2[C@@H]3CCC4=CC(=O)C=C[C@]4(C)[C@H]3[C@@H](O)C[C@@]21C | 176 |  |  |
| CCOC(=O)CC(=O)C(C)C | -9 | 173 |  |
| CCc1ccccc1N | -46.5 | 210 | log10 vapour pressure (mmHg): -0.77 |
| Cc1ccc(C(C)C)cc2c(C)ccc1-2 | 31.5 |  |  |
| CNNC | -9 | 81 | log10 vapour pressure (mmHg): 1.84 |
| CC(CC(C(N)=O)(c1ccccc1)c1ccccc1)N(C)C (stereo not drawn) | 137 |  |  |
| CN(C)C(=O)Nc1cccc(Cl)c1 |  |  | log10 Koc (L/kg): 1.79 |
| O=C1C(Cl)=CC(=NCl)C=C1Cl | 66 |  |  |
| OCc1cc(O)ccc1O | 100 |  |  |
| CCSC(=O)SCC |  | 197 |  |
| CCC(C)O[N+](=O)[O-] (stereo not drawn) |  | 124 |  |
| CCC(CC)COC(=O)CCCCC(=O)OCC(CC)CC | -15 |  |  |
| Cc1cn([C@H]2C[C@H](O)[C@@H](CO)O2)c(=O)[nH]c1=O | 186 |  |  |

| SMILES | melting point [°C] | boiling point [°C] | further results |
| --- | --- | --- | --- |
| CC1=C(C)C(=O)C(C)=C(C)C1=O | 112 |  |  |
| CN(O)CCO |  |  | ready biodegradability: readily biodegradable |
| c1ccc2[nH]c(-c3cscn3)nc2c1 | 300 |  | log10 Koc (L/kg): 3.24; log10 vapour pressure (mmHg): -8.4 |
| CC(=O)CC(=O)Nc1ccc(Cl)cc1 | 132 |  |  |
| Nc1cccc(Br)c1 | 18.5 | 251 |  |
| C=CC[C@@H](C)CC | -142 | 86.7 | log10 vapour pressure (mmHg): 1.87 |
| NC1CCCC1 | -82.7 | 108 |  |
| O=C(ON=C1C=CC(=NOC(=O)c2ccccc2)C=C1)c1ccccc1 |  |  | ready biodegradability: not readily biodegradable |
| Cl.Nc1ccc(N=Nc2ccccc2)c(N)c1 | 118 |  |  |
| Clc1cnc(Cl)c(Cl)c1 | 49 | 219 | ready biodegradability: not readily biodegradable |
| ClC(c1ccccc1)c1ccccc1 | 16 |  |  |
| CN(N)c1ccccc1 |  | 228 |  |
| BrC=CBr | -37.5 | 110 | log10 Koc (L/kg): 1.65; log10 vapour pressure (mmHg): 1.49; ready biodegradability: not readily biodegradable |
| Nc1cccc(C(=O)c2cccc(N)c2)c1 | 174 |  |  |
| CC(=O)Oc1ccc2c3c1O[C@H]1[C@@H](OC(C)=O)C=C[C@H]4[C@@H](C2)N(C)CC[C@@]341 | 173 |  | log10 vapour pressure (mmHg): -9.12 |
| C[C@H](N[C@H](CCc1ccccc1)C(=O)O)C(=O)N1CCC[C@H]1C(=O)O | 150 |  |  |
| Nc1cccc(Oc2ccccc2)c1 | 37 | 315 |  |
| CCC(C)CC(C)C(C)C (stereo not drawn) |  | 161 |  |
| CC(C)SSC(C)C | -69 | 177 |  |
| Clc1ccc(Cl)c2ccccc12 |  |  | log10 BCF: 3.75; log10 biotransformation half-life (days): 2.37 |
| COc1cc(OC)nc(N=C(O)NS(=O)(=O)Nc2ccccc2C(=O)C2CC2)n1 | 162 |  |  |
